Experiments:
Hepatotoxicity [1] = system: Hepatotoxicity;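 for HepSE bilirubinemia: bilirubinemia hepatic side effect score drawn from the DILIps training data, a prediction system for drug-induced liver injury; call rule not given here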;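 for HepSE cholecystitis: Cholecystitis-related hepatic side effect score drawn from the DILIps (drug-induced liver injury prediction) training data set; call rule not given here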;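 for HepSE cholelithiasis: hepatic side effect score for cholelithiasis, drawn from the DILIps training data for predicting drug-induced liver injury; call rule not given here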;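 for HepSE cirrhosis: cirrhosis hepatic side effect score taken from the DILIps (drug-induced liver injury prediction) training set; call rule not given here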;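 for HepSE elevated liver function tests: hepatic side effect score for raised liver function tests, as recorded in the DILIps training set used for predicting drug-induced liver injury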; for HepSE hepatic failure: call rule not given here;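 for HepSE hepatomegaly: hepatic side effect score for hepatomegaly, taken from the training set of the DILIps drug-induced liver injury prediction system; call rule not given here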
Hepatotoxicity [2] = system: Hepatotoxicity; remark: listed apart in the source;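 for HepSE bilirubinemia: bilirubinemia hepatic side effect score drawn from the DILIps training data, a prediction system for drug-induced liver injury; call rule not given here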;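 for HepSE cholecystitis: Cholecystitis-related hepatic side effect score drawn from the DILIps (drug-induced liver injury prediction) training data set; call rule not given here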;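 for HepSE cholelithiasis: hepatic side effect score for cholelithiasis, drawn from the DILIps training data for predicting drug-induced liver injury; call rule not given here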;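 for HepSE cirrhosis: cirrhosis hepatic side effect score taken from the DILIps (drug-induced liver injury prediction) training set; call rule not given here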;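 for HepSE elevated liver function tests: hepatic side effect score for raised liver function tests, as recorded in the DILIps training set used for predicting drug-induced liver injury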; for HepSE hepatic failure: call rule not given here
Hepatotoxicity [3] = system: Hepatotoxicity; remark: listed apart in the source;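 for HepSE bilirubinemia: bilirubinemia hepatic side effect score drawn from the DILIps training data, a prediction system for drug-induced liver injury; call rule not given here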;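 for HepSE cholecystitis: Cholecystitis-related hepatic side effect score drawn from the DILIps (drug-induced liver injury prediction) training data set; call rule not given here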;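 for HepSE cholelithiasis: hepatic side effect score for cholelithiasis, drawn from the DILIps training data for predicting drug-induced liver injury; call rule not given here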;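 for HepSE cirrhosis: cirrhosis hepatic side effect score taken from the DILIps (drug-induced liver injury prediction) training set; call rule not given here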;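 for HepSE elevated liver function tests: hepatic side effect score for raised liver function tests, as recorded in the DILIps training set used for predicting drug-induced liver injury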; for HepSE hepatic failure: call rule not given here
Hepatotoxicity [4] = system: Hepatotoxicity; remark: listed apart in the source;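 for HepSE bilirubinemia: bilirubinemia hepatic side effect score drawn from the DILIps training data, a prediction system for drug-induced liver injury; call rule not given here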;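 for HepSE cholecystitis: Cholecystitis-related hepatic side effect score drawn from the DILIps (drug-induced liver injury prediction) training data set; call rule not given here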;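 for HepSE cholelithiasis: hepatic side effect score for cholelithiasis, drawn from the DILIps training data for predicting drug-induced liver injury; call rule not given here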;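 for HepSE cirrhosis: cirrhosis hepatic side effect score taken from the DILIps (drug-induced liver injury prediction) training set; call rule not given here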;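 for HepSE elevated liver function tests: hepatic side effect score for raised liver function tests, as recorded in the DILIps training set used for predicting drug-induced liver injury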; for HepSE hepatic failure: call rule not given here
Hepatotoxicity [5] = system: Hepatotoxicity; remark: listed apart in the source; for HepSE hepatic failure: call rule not given here
Hepatotoxicity [6] = system: Hepatotoxicity; remark: listed apart in the source; for HepSE hepatic failure: call rule not given here
Hepatotoxicity [7] = system: Hepatotoxicity; remark: listed apart in the source
Hepatotoxicity [8] = system: Hepatotoxicity; remark: listed apart in the source
Hepatotoxicity [9] = system: Hepatotoxicity; remark: listed apart in the source
Hepatotoxicity [10] = system: Hepatotoxicity; remark: listed apart in the source
Hepatotoxicity [11] = system: Hepatotoxicity; remark: listed apart in the source
Hepatotoxicity [12] = system: Hepatotoxicity; remark: listed apart in the source
Hepatotoxicity [13] = system: Hepatotoxicity; remark: listed apart in the source
Hepatotoxicity [14] = system: Hepatotoxicity; remark: listed apart in the source

| SMILES | HepSE_bilirubinemia (Hepatotoxicity [1]) | HepSE_cholecystitis (Hepatotoxicity [2]) | HepSE_cholelithiasis (Hepatotoxicity [3]) | HepSE_cirrhosis (Hepatotoxicity [4]) | HepSE_elevated liver function tests (Hepatotoxicity [5]) | HepSE_hepatic failure (Hepatotoxicity [6]) | HepSE_hepatic necrosis (Hepatotoxicity [7]) | HepSE_hepatitis (Hepatotoxicity [8]) | HepSE_hepatomegaly (Hepatotoxicity [9]) | HepSE_jaundice (Hepatotoxicity [10]) | HepSE_liver disease (Hepatotoxicity [11]) | HepSE_liver fatty (Hepatotoxicity [12]) | HepSE_liver function tests abnormal (Hepatotoxicity [13]) | HepSE_Combined Scores (Hepatotoxicity [14]) |
| --- | --- | --- | --- | --- | --- | --- | --- | --- | --- | --- | --- | --- | --- | --- |
| Cc1onc(-c2ccccc2)c1C(=O)N[C@@H]1C(=O)N2[C@@H]1SC(C)(C)[C@@H]2C(=O)O [OXACILLIN] | 0 | 0 | 0 | 0 | 0 | 0 | 0 | 0 | 0 | 0 | 0 | 0 | 1 | 1 |
| CCCc1nc(C(C)(C)O)c(C(=O)OCc2oc(=O)oc2C)n1Cc1ccc(-c2ccccc2-c2nnn[nH]2)cc1 [OLMESARTAN MEDOXOMIL] | 0 | 0 | 0 | 0 | 0 | 0 | 0 | 0 | 0 | 1 | 0 | 0 | 0 | 1 |
| O=[N+]([O-])O[C@H]1CO[C@H]2[C@@H]1OC[C@H]2O[N+](=O)[O-] [ISOSORBIDE DINITRATE] | 0 | 0 | 0 | 0 | 0 | 0 | 0 | 0 | 0 | 0 | 0 | 0 | 0 | 0 |
| CC1(C)O[C@@H]2C[C@H]3[C@@H]4CCC5=CC(=O)CC[C@]5(C)[C@@]4(F)[C@@H](O)C[C@]3(C)[C@]2(C(=O)CCl)O1 [HALCINONIDE] | 0 | 0 | 0 | 0 | 0 | 0 | 0 | 0 | 0 | 0 | 0 | 0 | 0 | 0 |
| CC1Cc2ccccc2N1NC(=O)c1ccc(Cl)c(S(N)(=O)=O)c1 (centres undefined) [INDAPAMIDE] | 0 | 0 | 0 | 0 | 0 | 0 | 0 | 1 | 0 | 1 | 0 | 0 | 1 | 3 |
| Fc1ccc([C@@H]2CCNC[C@H]2COc2ccc3c(c2)OCO3)cc1 [PAROXETINE] | 1 | 0 | 1 | 0 | 1 | 1 | 1 | 1 | 0 | 1 | 0 | 0 | 1 | 8 |
